Experimental data as given in publication PMC10382042, “Brevetoxin versus Brevenal Modulation of Human Nav1 Channels” (Marine Drugs, 2023).
Where “and” joins values, the source holds several entries; their conditions need not be identical. Equal values may be shown once. Read-outs that look alike come from different tables or passages of the source.

Assays:
Format in all cases: cell-based
human Nav1.2 = human Nav1.2 (Homo sapiens, UniProt Q99250); assay: Automated patch-clamp, concentration-response and inactivation fits, Nav1.2 in HEK293; details: for Nav1.2 yinf: single exponential fit
Chain of human Nav1.2 (Q99250 whole entry): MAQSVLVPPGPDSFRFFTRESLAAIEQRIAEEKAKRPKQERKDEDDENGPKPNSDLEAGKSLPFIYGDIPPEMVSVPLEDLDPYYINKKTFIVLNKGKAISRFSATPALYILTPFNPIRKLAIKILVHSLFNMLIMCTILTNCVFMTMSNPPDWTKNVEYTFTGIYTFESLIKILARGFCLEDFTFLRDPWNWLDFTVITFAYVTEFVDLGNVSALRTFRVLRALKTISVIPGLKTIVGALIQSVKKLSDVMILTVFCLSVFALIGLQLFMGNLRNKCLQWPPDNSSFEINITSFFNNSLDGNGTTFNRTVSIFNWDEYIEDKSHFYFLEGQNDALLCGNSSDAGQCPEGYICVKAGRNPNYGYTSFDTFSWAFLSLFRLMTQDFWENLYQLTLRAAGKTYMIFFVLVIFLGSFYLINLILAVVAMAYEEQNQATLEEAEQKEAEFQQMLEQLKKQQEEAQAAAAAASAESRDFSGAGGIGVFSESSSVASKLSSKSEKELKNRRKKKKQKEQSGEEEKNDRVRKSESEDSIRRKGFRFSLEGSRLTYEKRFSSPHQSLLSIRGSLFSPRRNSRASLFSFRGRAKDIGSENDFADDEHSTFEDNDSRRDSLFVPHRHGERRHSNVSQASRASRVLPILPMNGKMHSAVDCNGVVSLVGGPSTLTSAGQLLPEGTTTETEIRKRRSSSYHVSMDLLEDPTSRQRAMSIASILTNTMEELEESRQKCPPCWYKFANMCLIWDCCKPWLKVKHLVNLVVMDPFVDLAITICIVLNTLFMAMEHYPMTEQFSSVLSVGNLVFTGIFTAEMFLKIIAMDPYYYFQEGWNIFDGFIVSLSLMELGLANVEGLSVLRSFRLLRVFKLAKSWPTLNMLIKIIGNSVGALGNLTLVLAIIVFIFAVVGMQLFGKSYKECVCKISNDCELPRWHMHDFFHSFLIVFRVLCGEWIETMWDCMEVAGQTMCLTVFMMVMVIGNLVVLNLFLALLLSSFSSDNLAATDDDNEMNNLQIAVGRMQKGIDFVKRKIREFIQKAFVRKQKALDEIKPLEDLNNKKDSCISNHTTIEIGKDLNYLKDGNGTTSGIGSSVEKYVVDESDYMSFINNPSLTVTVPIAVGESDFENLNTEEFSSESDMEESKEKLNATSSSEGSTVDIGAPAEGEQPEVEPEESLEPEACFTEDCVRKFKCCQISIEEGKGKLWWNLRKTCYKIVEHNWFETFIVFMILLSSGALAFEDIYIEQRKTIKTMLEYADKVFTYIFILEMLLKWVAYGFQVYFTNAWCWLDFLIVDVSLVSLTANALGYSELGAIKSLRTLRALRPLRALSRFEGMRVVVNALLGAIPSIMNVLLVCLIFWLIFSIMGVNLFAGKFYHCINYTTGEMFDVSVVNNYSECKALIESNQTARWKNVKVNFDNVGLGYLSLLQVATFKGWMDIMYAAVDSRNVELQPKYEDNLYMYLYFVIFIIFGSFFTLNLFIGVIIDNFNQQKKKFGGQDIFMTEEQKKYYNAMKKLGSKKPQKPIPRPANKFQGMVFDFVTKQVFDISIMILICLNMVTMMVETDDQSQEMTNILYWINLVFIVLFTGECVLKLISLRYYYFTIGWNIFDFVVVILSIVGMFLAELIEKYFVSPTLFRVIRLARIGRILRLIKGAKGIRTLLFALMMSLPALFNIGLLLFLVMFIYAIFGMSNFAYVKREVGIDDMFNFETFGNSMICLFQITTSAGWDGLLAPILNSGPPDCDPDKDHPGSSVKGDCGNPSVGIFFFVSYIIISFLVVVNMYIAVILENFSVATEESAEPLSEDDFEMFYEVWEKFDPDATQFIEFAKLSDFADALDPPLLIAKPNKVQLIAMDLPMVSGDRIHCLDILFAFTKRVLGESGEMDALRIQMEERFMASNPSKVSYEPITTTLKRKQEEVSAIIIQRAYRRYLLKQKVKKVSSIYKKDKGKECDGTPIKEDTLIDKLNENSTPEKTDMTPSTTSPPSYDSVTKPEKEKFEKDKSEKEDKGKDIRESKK
Experimental: (§1) Functional modulation of recombinant human voltage-gated sodium (Nav) channels exposed to marine PbTx-3 and brevenal was assessed by automated patch-clamp electrophysiology. Neuronal Nav1.2 (CNS) and Nav1.7 (PNS), in addition to muscle Nav1.4 (skeletal) and Nav1.5 (cardiac) sodium channels, were patch-clamped in mammalian cells. Whole-cell currents mediated by human Nav1.4 and Nav1.7 overexpressed in CHO-K1 cells, as well as human Nav1.2 and Nav1.5 overexpressed in HEK293 cells, were recorded at room temperature. Currents were elicited by 25 ms test pulses to −20 mV from a holding potential (Vh) of −120 mV, delivered for 5 min at 0.1 Hz, after each full-bath solution exchange to allow current amplitude and kinetics to reach a steady state.
(§2) Current traces were scaled to maximal Ipeak and are presented as insets in Figure 2 to underline the effects (or lack thereof) of PbTx-3 and brevenal on the current kinetics of the four Nav isoforms studied. Inactivation time constants (τinact) in control and the presence of PbTx-3 and brevenal were estimated by exponential fits (see Methods) to the current decay between 15% and 85% of the depolarizing pulse. Single exponential fits adequately described τinact for the neuronal and the skeletal muscle Nav isoforms, whereas a double exponential fit was required to approximate open channel inactivation of the cardiac Nav current. Consistent with the enhancement of Ilate observed for Nav1.2, Nav1.4, and Nav1.5 in the presence of PbTx-3, significant concentration-dependent increases in the Yinf asymptote were detected (Tables S1–S3). These were mirrored by brevenal exposure in Nav1.2- and Nav1.4-mediated currents. Nevertheless, the estimated τinacts appeared insensitive to PbTx-3 and brevenal modification, with the notable exception of Nav1.4, for which high concentrations of PbTx-3 and brevenal caused a measurable slowing of the open channel inactivation time constant (Table S2).
(§3) Recording solutions: The extracellular solution contained (in mM) 140 NaCl, 5 KCl, 2 CaCl2, 2 MgCl2, 10 glucose, and 10 HEPES (pH 7.4 with NaOH, 298 ± 3 mOsmol/k g). Control intracellular solution (in mM): 60 CsF, 70 CsCl, 10 EGTA, 10 glucose, and 10 HEPES (pH 7.2 with CsOH, 285 ± 3 mOsmol/kg). Intracellular exposure to brevenal (1 μM) was achieved by including it in the control intracellular solution during chip filling.
(§4) HEK293 cells heterologously expressing human Nav1.2 (Scottish Biomedical, a kind gift from the Petrous lab, Florey Institute of Neuroscience and Mental Health, Melbourne, VIC Australia) and Nav1.5 (ChanTest Corp., Cleveland, OH, USA) were cultured in DMEM containing 10% v/v FBS and selection antibiotics to enable stable expression as per the manufacturer’s recommendation. CHOK1 expressing Nav1.4 and Nav1.7 (ChanTest) was cultured in DMEM/F12 containing 10% v/v FBS and selection antibiotics supporting stable expression as recommended by the manufacturer. Cells were maintained in a humidified 5% CO2 incubator at 37 °C, grown in T25 flasks to 70–80% confluence, and passaged every 3–4 days using TrypLE Express (Invitrogen). After harvesting with TrypLE, cells were resuspended to 10^5 cells/mL in cold extracellular solution and allowed to recover for 30 min at 4 °C before recording.
(§5) Electrophysiology: Automated patch-clamp (APC) recordings were performed in a PatchLiner Octo (Nanion Technologies GmbH, Munich, Germany) equipped with two EPC-10 quadro patch-clamp amplifiers (HEKA Electronik, Lambrecht/Pfalz, Germany). PatchControl HT (Nanion) was used for cell capture, seal formation, and establishment of the whole-cell configuration, whilst voltage was controlled and currents were sampled with PatchMaster (HEKA Electronics). Recordings were performed under the whole-cell configuration using single-hole planar medium resistance NPC-16 chips (Rchip, resistance of ~2.5 MΩ) at room temperature (22–24 °C).
(§6) Cells between passages 6 and 12 were used. […]

human Nav1.4 [1] = molecular target: T1, human Nav1.4 (Homo sapiens, UniProt P35499); assay: Automated patch-clamp, concentration-response and inactivation fits, Nav1.4 in CHO-K1; details: for Nav1.4 yinf / Nav1.4 τ inact: n = 4
T1 sequence (P35499 whole entry): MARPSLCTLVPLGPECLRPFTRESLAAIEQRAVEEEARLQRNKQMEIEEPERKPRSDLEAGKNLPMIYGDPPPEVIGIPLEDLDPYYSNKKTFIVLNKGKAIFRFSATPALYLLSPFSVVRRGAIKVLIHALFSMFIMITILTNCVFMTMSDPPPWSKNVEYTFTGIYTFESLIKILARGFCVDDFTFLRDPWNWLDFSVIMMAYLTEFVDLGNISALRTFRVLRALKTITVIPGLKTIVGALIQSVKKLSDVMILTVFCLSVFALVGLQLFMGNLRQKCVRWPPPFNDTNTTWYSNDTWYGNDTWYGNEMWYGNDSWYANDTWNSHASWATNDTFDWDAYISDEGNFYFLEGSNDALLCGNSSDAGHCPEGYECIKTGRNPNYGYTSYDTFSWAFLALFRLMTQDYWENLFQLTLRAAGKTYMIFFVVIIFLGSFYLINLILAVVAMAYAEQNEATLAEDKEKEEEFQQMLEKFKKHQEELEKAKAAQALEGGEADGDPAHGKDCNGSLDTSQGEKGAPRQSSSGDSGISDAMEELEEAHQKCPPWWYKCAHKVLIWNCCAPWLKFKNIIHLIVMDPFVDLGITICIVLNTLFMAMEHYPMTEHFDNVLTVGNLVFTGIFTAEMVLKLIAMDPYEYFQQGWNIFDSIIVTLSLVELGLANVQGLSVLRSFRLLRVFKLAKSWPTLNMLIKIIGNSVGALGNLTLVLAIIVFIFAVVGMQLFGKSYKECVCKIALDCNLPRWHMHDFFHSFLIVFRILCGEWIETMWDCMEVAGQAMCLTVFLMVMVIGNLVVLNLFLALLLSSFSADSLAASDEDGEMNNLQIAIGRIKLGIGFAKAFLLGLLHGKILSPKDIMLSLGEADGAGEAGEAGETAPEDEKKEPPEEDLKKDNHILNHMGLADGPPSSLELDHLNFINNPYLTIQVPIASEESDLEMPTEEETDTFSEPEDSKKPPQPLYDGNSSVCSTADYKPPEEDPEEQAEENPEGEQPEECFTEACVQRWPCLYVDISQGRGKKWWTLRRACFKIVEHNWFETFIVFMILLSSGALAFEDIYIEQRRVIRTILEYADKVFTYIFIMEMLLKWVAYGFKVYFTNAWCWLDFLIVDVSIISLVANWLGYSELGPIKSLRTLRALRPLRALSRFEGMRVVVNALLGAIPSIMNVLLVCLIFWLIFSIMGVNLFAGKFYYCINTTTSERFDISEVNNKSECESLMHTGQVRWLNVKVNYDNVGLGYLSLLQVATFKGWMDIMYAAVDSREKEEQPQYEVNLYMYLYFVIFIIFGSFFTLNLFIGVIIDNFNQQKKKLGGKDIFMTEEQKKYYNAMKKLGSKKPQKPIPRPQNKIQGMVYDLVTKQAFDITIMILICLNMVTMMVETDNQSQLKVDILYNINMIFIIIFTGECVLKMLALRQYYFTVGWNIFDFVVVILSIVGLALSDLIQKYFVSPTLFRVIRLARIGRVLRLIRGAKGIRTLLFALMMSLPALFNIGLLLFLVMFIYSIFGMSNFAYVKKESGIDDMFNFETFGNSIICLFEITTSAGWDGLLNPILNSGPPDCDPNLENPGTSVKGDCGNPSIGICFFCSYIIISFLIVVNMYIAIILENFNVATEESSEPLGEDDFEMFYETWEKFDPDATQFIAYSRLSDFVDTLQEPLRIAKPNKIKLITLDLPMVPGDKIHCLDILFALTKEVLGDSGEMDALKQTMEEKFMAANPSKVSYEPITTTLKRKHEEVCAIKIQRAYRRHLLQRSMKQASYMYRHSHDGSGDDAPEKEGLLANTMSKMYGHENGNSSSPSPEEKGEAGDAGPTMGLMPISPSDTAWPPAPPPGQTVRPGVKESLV
Experimental: as §1, §2, §3, §4, §5, §6

human Nav1.7 = human Nav1.7 (Homo sapiens, UniProt Q15858); assay: Automated patch-clamp I-V relationship (voltage dependence of activation, Gmax), Nav1.7
Experimental: (§7) The voltage dependence of recombinant Nav channel-mediated currents exposed to PbTx-3 and brevenal was evaluated using current–voltage (I-V) relationships built for Ipeak and Ilate elicited by a standard stimulation protocol (25 ms, −100 to +60 mV, Vh −120 mV, 0.1 Hz).
The effects of extracellular exposure to PbTx-3 (PbTx-3o = 1 μM) and brevenal (Brevenalo = 10 μM) on the activation of Nav channels in neuronal and muscle cells were examined under normal intracellular ionic conditions. […] To investigate the possibility of overlapping binding of these compounds within Nav channels, Nav whole-cell currents were recorded using an intracellular solution supplemented with brevenal (Brevenali = 1 μM). After equilibration, extracellular PbTx-3o (1 μM) was applied and its modulatory effects over the current kinetics and voltage dependence of activation were compared.
(§8) Figure 4 and Figure 5 display representative current traces mediated by human recombinant Nav channels in control and upon exposure to PbTx-3 and brevenal. I-V plots from the normalized peak and late (when present) currents amplitudes (Ipeak/Ipeak^max and Ilate/Ipeak^max) were fitted to a Boltzmann function rendering the half-maximal activation potential (V0.5) and normalized macroscopic conductance (Gmax) parameters (see Section 4). The changes in V0.5 (ΔV0.5 = V0.5^Comp − V0.5^Ctr) and relative Gmax (Gmax^Rel = Gmax^Comp/Gmax^Ctr) observed in the presence of PbTx-3 and brevenal and control conditions were then calculated and compared for all assayed conditions.
as §3, §5
(§9) Peak I–V curves were fitted using:I(V) = (V − Vrev) × Gmax/(1 + exp ((V0.5 − V)/Vslope) where I is the macroscopic current, V is the command potential, Vrev is the reversal potential (mV), Gmax is the maximal conductance, V0.5 is the half-activation potential (mV), and Vslope is the slope factor (mV/e-fold).

human Nav1.4 [2] = molecular target: T1, human Nav1.4; assay: Automated patch-clamp I-V relationship (voltage dependence of activation, Gmax), Nav1.4
Experimental: as §7
[…] […] To investigate the possibility of overlapping binding of these compounds within Nav channels, Nav whole-cell currents were recorded using an intracellular solution supplemented with brevenal (Brevenali = 1 μM). After equilibration, extracellular PbTx-3o (1 μM) was applied and its modulatory effects over the current kinetics and voltage dependence of activation were compared.
as §8, §3, §5, §9

[3] = test pulse −20 mV, Vh −120 mV, extracellular, n = 5

SMILES: C=C/C=C\CC[C@H]1O[C@H]2CC[C@@]3(C)O[C@H]4[C@@H](O)C[C@@]5(C)O[C@@H](CC/C=C(C)/C(C)=C/C=O)[C@@H](C)C[C@H]5O[C@@H]4C[C@@H]3O[C@@H]2CC[C@@]1(C)O [Brevenal]
- Nav1.2 τ inact (human Nav1.2; 10^-5 M, n = 4): 0.75 ± 0.10 ms
- Nav1.2 yinf (human Nav1.2; 10^-5 M, n = 4): 0.12±0.06
- Nav1.2 τ inact (human Nav1.2; 10^-6 M, n = 4): 0.65 ± 0.08 ms
- Nav1.2 yinf (human Nav1.2; 10^-6 M, n = 4): 0.10±0.07
- Nav1.2 τ inact (human Nav1.2; 10^-9 M, n = 4): 0.74 ± 0.8 ms
- Nav1.2 yinf (human Nav1.2; 10^-9 M, n = 4): 0.08±0.04
- EC50 (human Nav1.2; inhibition of peak current, −20 mV, Vh −120 mV, n = 5, read-out: Nav1.2 Ipeak EC50): 18 nM
- Nav1.2 Ipeak FC^Max (maximal fold change) (human Nav1.2; [3]): 0.6 ± 0.1
- Nav1.4 yinf (human Nav1.4 [1]; 10^-5 M): 0.19±0.03
- Nav1.4 τ inact (human Nav1.4 [1]; 10^-5 M): 1.16 ± 0.15 ms
- Nav1.4 yinf (human Nav1.4 [1]; 10^-6 M): 0.14±0.03
- Nav1.4 yinf (human Nav1.4 [1]; 10^-9 M): 0.09±0.01
- Nav1.4 τ inact (human Nav1.4 [1]; 10^-9 M): 0.71 ± 0.11 ms
- fold lower potency than PbTx-3 at enhancing Nav1.4-mediated Ilate (human Nav1.4 [1]; Brevenal EC50 vs PbTx-3 EC50): ~ 25 fold
- EC50 (human Nav1.4 [1]; enhancement of late current, −20 mV, Vh −120 mV, n = 5, read-out: Nav1.4 Ilate EC50): 100 nM
- EC50 (human Nav1.4 [1]; inhibition of peak current, −20 mV, Vh −120 mV, n = 5, read-out: Nav1.4 Ipeak EC50): 7.7 nM
- Nav1.4 Ilate FC^Max (maximal fold change) (human Nav1.4 [1]; [3]): 4.1 ± 0.8
- Nav1.4 Ipeak FC^Max (maximal fold change) (human Nav1.4 [1]; [3]): 0.1 ± 0.1
- Nav1.4 Ilate FC^Max (maximal fold change) (human Nav1.4 [1]; test pulse −20 mV, Vh −120 mV, extracellular, n = 5, listed as brevenal): 4.1
- Nav1.7 V0.5 (human Nav1.7; Brevenali-occupied channels (intracellular 1 μM), n = 4, control −20.0 ± 2.4 mV): −16.6 ± 1.7 mV
- decrease in Nav1.7 Gmax (human Nav1.7; Brevenalo 10 μM): ~ 10%
- Gmax^Rel of Nav1.7 (human Nav1.7; Brevenalo 10 μM, n = 5): 0.9 ± 0.1
- shift in V0.5 of Nav1.7 (human Nav1.7; Brevenalo 10 μM, n = 6): −4.5 ± 0.4 mV
- inhibition of Nav1.4 Gmax (human Nav1.4 [2]; Brevenalo 1 μM): ~ 70%
- Gmax^Rel of Nav1.4 (human Nav1.4 [2]; Brevenalo 1 μM, n = 7): 0.3 ± 0.02
- depolarizing shift in V0.5 of Nav1.4 (human Nav1.4 [2]; Brevenalo 1 μM, n = 7): 4.9 ± 1.1 mV
- Nav1.4 V0.5 (human Nav1.4 [2]; Ctro:Brevenali, n = 4, control −31.8 ± 0.5 mV): −26.4 ± 2.8 mV
- right shift of Nav1.4 activation vs control intracellular (human Nav1.4 [2]; brevenal 1 μM in the intracellular solution): ~ 5 mV

SMILES: C=C(CO)C[C@@H]1C[C@H](O)[C@]2(C)OC3CC4OC5C[C@]6(C)O[C@]7(C)CCC8OC9C[C@]%10(C)OC%11C(C)=CC(=O)OC%11CC%10OC9C[C@@H](C)C8OC7CC6O[C@@]5(C)C/C=C\C4OC3CC2O1 (stereo partly shown) [PbTx-3, Brevetoxin PbTx-3]
- Nav1.2 Ilate FC^Max (maximal fold change) (human Nav1.2): 3.0 ± 0.1
- Nav1.2 τ inact (human Nav1.2): 0.88 ± 0.1 ms and 0.76 ± 0.05 ms and 0.64 ± 0.14 ms
- EC50 (human Nav1.2; read-out: Nav1.2 Ilate EC50): 0.0053 nM
- Nav1.4 Ipeak FC^Max (maximal fold change) (human Nav1.4 [1]): 0.03 ± 0.03
- EC50 (human Nav1.4 [1]; read-out: EC50, enhancement of Nav1.4-mediated Ilate): 4 nM
- EC50 (human Nav1.4 [1]; read-out: Nav1.4 Ilate EC50): 4.1 nM
- EC50 (human Nav1.4 [1]; read-out: Nav1.4 Ipeak EC50): 0.91 nM
- decrease in Nav1.7 maximal conductance (human Nav1.7): ~ 70%
- leftward shift in activation ΔV0.5 of Nav1.7 (human Nav1.7): 6.8 ± 0.7 mV
- shift in the voltage dependence of activation of Nav1.7 (human Nav1.7): −10.0 ± 0.6 mV
- Gmax^Rel of Nav1.4 (human Nav1.4 [2]): 0.3 ± 0.05 and 0.4 ± 0.1
- hyperpolarizing shift in V0.5 of Nav1.4 (human Nav1.4 [2]): 9.2 ± 1.5 mV
- inhibition of Nav1.4 Gmax (human Nav1.4 [2]): ~ 70%
- inhibition of Nav1.4 Ipeak (human Nav1.4 [2]): completely inhibited
- ΔV0.5 of Nav1.4 activation (human Nav1.4 [2]): 3.1 ± 2.6 mV
